In patent US20100022521A1, “COMPOUNDS” (Hansa Metallwerke AG, priority 2005, published 2010):

target: mGluR5 (UniProt P31424); test: MGluR5 receptor binding test ([3H]-M-MPEP displacement); set-up: species or system rat; conditions: radioligand [3H]-M-MPEP (2 nM); species not given; read-out: mGlu5 Ki
Procedure: MGluR5 Receptor Binding Tests
Rat cerebro-cortical membrane preparation was used to determine the binding characteristics of reference compounds and novel compounds to the rat mGluR5. The A18 cell line expressing hmGluR5a (purchased from Euroscreen) was used to determine binding characteristics of the chemical compounds to the human mGluR5a receptor. As radioligand [3H]-M-MPEP (2 nM) was used. The nonspecific binding was determined in the presence of 10 μM M-MPEP.

| Ki | SMILES |
| --- | --- |
| < 500 nM | N#Cc1cccc(S(=O)(=O)c2sc3nc(F)ccc3c2-c2ccc(Cl)cc2)c1 [Compound 65] |
| < 500 nM | O=S(=O)(c1ccc(Cl)cc1)c1sc2ncc(Cl)cc2c1-c1ccc(Cl)cc1 [Compound 97, 5-Chloro-2-(4-chloro-benzenesulfonyl)-3-(4-chloro-phenyl)-thieno[2,3-b]pyridine] |
| < 500 nM | CS(=O)(=O)Nc1cnc2sc(S(=O)(=O)c3ccc(Cl)cc3)c(-c3ccc(Cl)cc3)c2c1 [Compound 85, N-[2-(4-Chloro-benzenesulfonyl)-3-(4-chloro-phenyl)-thieno[2,3-b]pyridin-5-yl]-methanesulfonamide] |
| < 500 nM | Nc1ccc2c(-c3ccc(Cl)cc3)c(S(=O)(=O)c3ccc(Cl)cc3)sc2n1 [Compound 49, 6-Amino-2-(4-chloro-benzenesulfonyl)-3-(4-chloro-phenyl)-thieno[2,3-b]pyridine] |
| < 500 nM | Cc1cccc(S(=O)(=O)c2sc3nc(Cl)ccc3c2-c2ccc(Cl)cc2)c1 [Compound 50] |
| 500 to 1500 nM | CN(C)c1ccnc2sc(S(=O)(=O)c3ccc(Cl)cc3)c(-c3ccc(Cl)cc3)c12 [Compound 135, 2-(4-Chloro-benzenesulfonyl)-3-(4-chloro-phenyl)-4-dimethylamino-thieno[2,3-b]pyridine] |
| < 500 nM | COc1cccc(S(=O)(=O)c2sc3ncccc3c2-c2ccc(Cl)cc2)c1 [Compound 70] |
| < 500 nM | COc1ccc(S(=O)(=O)c2sc3ncccc3c2-c2cccc(F)c2)cc1F [Compound 127] |
| < 500 nM | O=S(=O)(c1ccc(Cl)cc1)c1sc2ncccc2c1N1CCC(CO)CC1 [Compound 140] |
| < 500 nM | CC1CCCN(c2c(S(=O)(=O)c3cccc(C#N)c3)sc3ncccc23)C1 (stereo not drawn) [Compound 32] |
| 500 to 1500 nM | CC1CCN(c2cc(C#N)cc(S(=O)(=O)c3sc4ncccc4c3N3CCC(C)CC3)c2)CC1 [Compound 95] |
| < 500 nM | N#Cc1cccc(-c2c(S(=O)(=O)c3cccc(C#N)c3)sc3ncccc23)c1 [Compound 66] |
| < 500 nM | CC1CCN(c2c(S(=O)(=O)c3ccc(Cl)cc3)sc3ncc(N)cc23)CC1 [Compound 104, 5-Amino-2-(4-chloro-benzenesulfonyl)-3-(4-methyl-piperidine)-thieno[2,3-b]pyridine] |
| < 500 nM | O=S(=O)(c1ccc(Br)s1)c1sc2ncccc2c1-c1ccc(Cl)cc1 [Compound 45] |
| < 500 nM | Cc1cc(C)cc(S(=O)(=O)c2sc3ncccc3c2-c2ccc(Cl)cc2)c1 [Compound 44] |
| < 500 nM | N#Cc1ccc(S(=O)(=O)c2sc3ncccc3c2-c2cccc(Cl)c2)cc1 [Compound 42] |
| < 500 nM | Cc1ccc(S(=O)(=O)c2sc3ncccc3c2-c2ccc(F)cc2)cc1 [Compound 55] |
| < 500 nM | O=S(=O)(c1ccc(Cl)cc1)c1sc2ncccc2c1N1CCOCC1 [Compound 46] |
| < 500 nM | O=S(=O)(c1ccc(Cl)cc1)c1sc2ncc(F)cc2c1-c1cccc(F)c1 [Compound 137, 2-(4-Chloro-benzenesulfonyl)-3-(3-fluoro-phenyl)-5-fluoro-thieno[2,3-b]pyridine] |
| > 1500 nM | CNC(=O)Nc1c(S(=O)(=O)c2ccc(OC)cc2)sc2ncccc12 [Compound 111] |
| < 500 nM | O=S(=O)(c1ccc(Cl)cc1)c1sc2ncc(F)cc2c1-c1ccc(Cl)cc1 [Compound 123, 2-(4-Chloro-benzenesulfonyl)-3-(4-chloro-phenyl)-5-fluoro-thieno[2,3-b]pyridine] |

| Ki | SMILES |
| --- | --- |
| < 500 nM | N#Cc1cc(F)cc(S(=O)(=O)c2sc3ncccc3c2-c2ccccc2F)c1 [Compound 132] |
| < 500 nM | O=S(=O)(c1cccc(Cl)c1)c1sc2ncccc2c1-c1ccc(F)cc1 [Compound 54] |
| > 1500 nM | O=S(=O)(c1ccc(Cl)cc1)c1sc2ncccc2c1N1CC[S+]([O-])CC1 [Compound 117] |
| 500 to 1500 nM | O=S(=O)(c1ccc(Cl)cc1)c1sc2nccc(O)c2c1-c1ccc(Cl)cc1 [Compound 103, 2-(4-chloro-benzenesulfonyl)-3-(4-chloro-phenyl)-4-hydroxy-thieno[2,3-b]pyridine] |
| 500 to 1500 nM | CC1CCN(S(=O)(=O)c2sc3ncccc3c2-c2ccc(Cl)cc2)CC1 [Compound 20, 3-(4-Chlorophenyl)-2-(4-methyl-piperidine-1-sulfonyl)-thieno[2,3-b]pyridine] |
| < 500 nM | O=S(=O)(c1ccc(Cl)cc1)c1sc2ncccc2c1-c1ccc(Cl)c(Cl)c1 [Compound 41] |
| < 500 nM | N#Cc1cc(F)cc(S(=O)(=O)c2sc3ncccc3c2-c2cccc(Cl)c2)c1 [Compound 136] |
| < 500 nM | O=S(=O)(c1ccc(Cl)cc1)c1sc2ncccc2c1N1CC[C@@H](F)C1 [Compound 141] |
| 500 to 1500 nM | O=[N+]([O-])c1cnc2sc(S(=O)(=O)c3ccc(Cl)cc3)c(-c3ccc(Cl)cc3)c2c1 [Compound 72, 2-(4-chloro-benzenesulfonyl)-3-(4-chloro-phenyl)-5-nitro-thieno[2,3-b]pyridine] |
| 500 to 1500 nM | O=S(=O)(c1ccccc1Cl)c1sc2ncccc2c1-c1ccc(Cl)cc1 [Compound 6] |
| < 500 nM | Cc1ccc(S(=O)(=O)c2sc3ncccc3c2-c2ccc(F)cc2)cc1Cl [Compound 23] |
| < 500 nM | O=S(=O)(c1ccc(Br)cc1)c1sc2ncccc2c1-c1ccc(Cl)cc1 [Compound 25] |
| < 500 nM | Cc1ccc(S(=O)(=O)c2sc3ncccc3c2-c2ccc(Cl)cc2)cc1Cl [Compound 63] |
| < 500 nM | Cc1ccc(S(=O)(=O)c2sc3ncccc3c2-c2ccc(Cl)cc2)cc1F [Compound 39] |
| < 500 nM | CN(C)c1ccc(S(=O)(=O)c2sc3ncccc3c2-c2ccc(Cl)cc2)cc1 [Compound 71] |
| < 500 nM | N#Cc1cc(F)cc(S(=O)(=O)c2sc3ncccc3c2-c2cccc(F)c2)c1 [Compound 110, 2-(3-Cyano-5-fluoro-benzenesulfonyl)-3-(3-fluoro-phenyl)-thieno[2,3-b]pyridine] |
| < 500 nM | COc1ccc(S(=O)(=O)c2sc3ncccc3c2-c2cccc(Cl)c2)cc1F [Compound 128] |
| < 500 nM | N#Cc1cccc(S(=O)(=O)c2sc3nc(Cl)ccc3c2-c2ccc(F)cc2)c1 [Compound 74] |
| < 500 nM | O=S(=O)(c1ccc(Cl)cc1)c1sc2nc(Cl)ccc2c1-c1ccc(Cl)cc1 [Compound 43, 6-chloro-2-(4-chloro-benzenesulfonyl)-3-(4-chloro-phenyl)-thieno[2,3-b]pyridine] |
| < 500 nM | N#Cc1cccc(S(=O)(=O)c2sc3ncccc3c2-c2ccc(F)cc2)c1 [Compound 29] |
| < 500 nM | Cc1ccc(-c2c(S(=O)(=O)c3cccc(C)c3)sc3ncccc23)cc1 [Compound 26] |

| Ki | SMILES |
| --- | --- |
| > 1500 nM | CN(C)c1ccc(S(=O)(=O)c2sc3nccc(N(C)C)c3c2-c2ccc(Cl)cc2)cc1 [Compound 124, 3-(4-chloro-phenyl)-4-dimethylamino-2-(4-dimethylamino-benzenesulfonyl)-thieno[2,3-b]pyridine] |
| < 500 nM | O=S(=O)(c1ccc(Cl)cc1)c1sc2ncccc2c1N1CCC(F)(F)CC1 [Compound 134] |
| 500 to 1500 nM | O=S(=O)(c1ccc(Cl)cc1)c1sc2ncccc2c1-n1cncn1 [Compound 133] |
| < 500 nM | COc1ccc2c(-c3ccc(Cl)cc3)c(S(=O)(=O)c3cccc(C#N)c3)sc2n1 [Compound 64, 2-(3-Cyano-benzenesulfonyl)-3-(4-chloro-phenyl)-6-methoxy-thieno[2,3-b]pyridine] |
| < 500 nM | O=S(=O)(c1ccc(Cl)cc1)c1sc2nccc(Cl)c2c1-c1ccc(Cl)cc1 [Compound 57, 4-Chloro-2-(4-chloro-benzenesulfonyl)-3-(4-chloro-phenyl)-thieno[2,3-b]pyridine] |
| < 500 nM | O=S(=O)(c1ccc(Cl)cc1)c1sc2nccc(F)c2c1-c1ccc(Cl)cc1 [Compound 102, 4-Fluor-2-(4-chloro-benzenesulfonyl)-3-(4-chloro-phenyl)-thieno[2,3-b]pyridine] |
| < 500 nM | Nc1ccnc2sc(S(=O)(=O)c3ccc(Cl)cc3)c(-c3ccc(Cl)cc3)c12 [Compound 125, 4-Amino-2-(4-chloro-benzenesulfonyl)-3-(4-chloro-phenyl)-thieno[2,3-b]pyridine] |
| > 1500 nM | CN1CCN(C(=O)Nc2c(S(=O)(=O)c3ccc(Cl)cc3)sc3ncccc23)CC1 [Compound 122] |
| < 500 nM | O=S(=O)(c1ccc(Cl)cc1)c1sc2ncccc2c1-c1cccc(F)c1 [Compound 109] |
| < 500 nM | Nc1cnc2sc(S(=O)(=O)c3ccc(Cl)cc3)c(-c3cccc(F)c3)c2c1 [Compound 115, 5-Amino-2-(4-chloro-benzenesulfonyl)-3-(3-fluor-phenyl)-thieno[2,3-b]pyridine] |
| < 500 nM | O=S(=O)(c1cc(F)cc(F)c1)c1sc2ncccc2c1-c1ccc(Cl)cc1 [Compound 87] |
| < 500 nM | N#Cc1cc(F)cc(S(=O)(=O)c2sc3nc(Cl)ccc3c2-c2cccc(F)c2)c1 [Compound 138] |
| > 1500 nM | O=C(Nc1c(S(=O)(=O)c2ccc(Cl)cc2)sc2ncccc12)N1CCCCC1 [Compound 121] |
| < 500 nM | CC1CCN(c2c(S(=O)(=O)c3ccc(Cl)cc3)sc3ncccc23)CC1 [Compound 94] |
| < 500 nM | O=S(=O)(c1ccc(C(F)(F)F)cc1)c1sc2ncccc2c1-c1ccc(Cl)cc1 [Compound 68] |
| < 500 nM | N#Cc1cccc(S(=O)(=O)c2sc3ncccc3c2-c2ccncc2)c1 [Compound 73] |
| < 500 nM | O=S(=O)(c1ccc(Cl)cc1)c1sc2ncccc2c1N1CCCC(O)C1 (stereo not drawn) [Compound 98] |
| > 1500 nM | O=S(=O)(c1ccc(Cl)cc1)c1sc2ncccc2c1N1CCN(c2ccc(F)cc2)CC1 [Compound 118] |
| 500 to 1500 nM | O=S(=O)(c1ccc(Cl)cc1)c1sc2ncccc2c1N1CCC(O)CC1 [Compound 99] |
| < 500 nM | O=S(=O)(c1ccc(Cl)cc1)c1sc2ncccc2c1N1CCCC1 [Compound 129] |
| < 500 nM | N#Cc1cc(F)cc(S(=O)(=O)c2sc3nc(Cl)ccc3c2-c2ccc(Cl)cc2)c1 [Compound 86, 2-(3-Cyano-5-fluoro-benzenesulfonyl)-3-(4-chloro-phenyl)-6-chloro-thieno[2,3-b]pyridine] |
